Source: ChEMBL document CHEMBL4808208, “Hepatoselective Dihydroquinolizinone Bis-acids for HBsAg mRNA Degradation” (ACS Med Chem Lett, 2021)
pIC50: −log10 of the molar value.

What was measured:
Cytochrome P450 2C8 = biological target: T1, Cytochrome P450 2C8 (Homo sapiens, UniProt P10632); assay: Inhibition of CYP2C8 in human liver microsomes using paclitaxel as substrate preincubated for 5 mins followed by NADPH addition by LC-MS/MS analysis; type: ADME
T1 sequence (P10632 whole entry): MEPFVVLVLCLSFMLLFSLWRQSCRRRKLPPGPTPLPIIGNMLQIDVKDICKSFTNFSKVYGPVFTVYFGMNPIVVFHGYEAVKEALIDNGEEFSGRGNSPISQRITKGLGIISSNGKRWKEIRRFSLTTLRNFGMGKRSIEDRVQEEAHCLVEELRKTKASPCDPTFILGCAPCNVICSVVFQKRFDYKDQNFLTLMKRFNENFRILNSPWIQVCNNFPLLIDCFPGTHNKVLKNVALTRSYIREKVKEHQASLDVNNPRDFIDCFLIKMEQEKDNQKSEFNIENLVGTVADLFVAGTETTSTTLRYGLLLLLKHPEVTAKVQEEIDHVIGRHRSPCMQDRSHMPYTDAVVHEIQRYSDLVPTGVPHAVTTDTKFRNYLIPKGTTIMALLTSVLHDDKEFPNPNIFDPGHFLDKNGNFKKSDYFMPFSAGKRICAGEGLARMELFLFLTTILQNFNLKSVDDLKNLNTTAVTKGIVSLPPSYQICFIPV

[1] = Efflux ratio of apparent permeability in human Caco-2 cells at 10 uM incubated for 1 hr; type: ADME, cell-based
[2] = Metabolic stability in mouse liver microsomes assessed as half life preincubated with compound for 10 mins followed by NADPH regenerating system addition and measured for 60 mins by LC/MS-MS analysis; type: ADME, Microsome; settings: time 70 min
[3] = biological target: Terminal nucleotidyltransferase 4A (Homo sapiens) (UniProt Q5XG87); assay: Inhibition of human PAPD7 expressed in HEK293 cells assessed as inhibition of poly-adenylation reaction using P32-labeled RNA oligonucleotides (5'-GCCUUUCAUCUCUAACUGCGAAAAAAAAAA-3') as substrate measured for 3 hrs by phosphor imaging analysis; type: cell-based; settings: dose 0.37-10 µM
Cytochrome P450 2A6 = biological target: T2, Cytochrome P450 2A6 (Homo sapiens, UniProt P11509); assay: Inhibition of CYP2A6 in human liver microsomes using coumarin as substrate preincubated for 5 mins followed by NADPH addition by LC-MS/MS analysis; type: ADME
T2 sequence (P11509 whole entry): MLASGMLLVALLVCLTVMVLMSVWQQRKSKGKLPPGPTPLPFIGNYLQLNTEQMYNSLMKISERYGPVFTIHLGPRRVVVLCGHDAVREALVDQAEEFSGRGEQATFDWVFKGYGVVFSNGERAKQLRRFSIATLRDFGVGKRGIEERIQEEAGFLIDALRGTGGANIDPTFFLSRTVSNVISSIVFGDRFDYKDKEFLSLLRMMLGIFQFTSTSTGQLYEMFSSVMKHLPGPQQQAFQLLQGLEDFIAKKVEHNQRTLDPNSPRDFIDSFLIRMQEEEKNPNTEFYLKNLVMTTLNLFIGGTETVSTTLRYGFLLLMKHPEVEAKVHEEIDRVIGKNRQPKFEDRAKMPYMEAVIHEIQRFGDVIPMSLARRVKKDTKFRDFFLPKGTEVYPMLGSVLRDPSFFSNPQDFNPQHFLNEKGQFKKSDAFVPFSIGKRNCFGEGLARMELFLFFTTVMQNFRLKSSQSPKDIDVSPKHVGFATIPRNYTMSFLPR

Cytochrome P450 1A2 = biological target: T3, Cytochrome P450 1A2 (Homo sapiens, UniProt P05177); assay: Inhibition of CYP1A2 in human liver microsomes using phenacetin as substrate preincubated for 5 mins followed by NADPH addition by LC-MS/MS analysis; type: ADME
T3 sequence (P05177 whole entry): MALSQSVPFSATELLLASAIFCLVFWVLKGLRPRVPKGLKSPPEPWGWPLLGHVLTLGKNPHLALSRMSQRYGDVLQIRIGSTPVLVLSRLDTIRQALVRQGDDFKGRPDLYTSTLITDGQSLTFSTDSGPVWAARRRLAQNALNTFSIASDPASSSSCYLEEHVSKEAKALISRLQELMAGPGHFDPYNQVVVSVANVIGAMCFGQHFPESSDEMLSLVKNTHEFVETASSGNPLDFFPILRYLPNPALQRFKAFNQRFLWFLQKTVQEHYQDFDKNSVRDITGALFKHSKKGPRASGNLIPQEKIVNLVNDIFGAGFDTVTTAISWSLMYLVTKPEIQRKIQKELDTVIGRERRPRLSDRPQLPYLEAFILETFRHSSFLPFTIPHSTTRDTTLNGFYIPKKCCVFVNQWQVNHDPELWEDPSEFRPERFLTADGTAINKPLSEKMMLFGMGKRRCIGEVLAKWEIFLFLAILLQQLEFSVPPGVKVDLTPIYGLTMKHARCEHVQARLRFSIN

[4] = Apparent permeability across basolateral to apical side in MDCK-MDR1 cells at 1 uM measured after 120 mins by LC-MS/MS analysis; type: ADME, cell-based, Canis lupus familiaris; settings: dog
[5] = Half life in CD-1 mouse liver at 8 mg/kg, po measured for 24 hrs by LC-MS/MS analysis; type: ADME, organism-based
[6] = Cmax in CD-1 mouse plasma at 8 mg/kg, po measured for 24 hrs by LC-MS/MS analysis; type: ADME, organism-based; design: route oral, dose 8 mg/kg, time 24 hrs
[7] = biological target: T4, Solute carrier organic anion transporter family member 1B3 (Homo sapiens, UniProt Q9NPD5); assay: Substrate activity at OATP1B3 (unknown origin) expressed in HEK293 cells assessed as ratio of drug uptake in absence of transporter inhibitor, estradiol-17beta-glucuronide to drug uptake in presence of transporter inhibitor, estradiol-17beta-glucuronide by LC-MS/MS analysis; type: ADME, cell-based
T4 sequence (Q9NPD5 whole entry): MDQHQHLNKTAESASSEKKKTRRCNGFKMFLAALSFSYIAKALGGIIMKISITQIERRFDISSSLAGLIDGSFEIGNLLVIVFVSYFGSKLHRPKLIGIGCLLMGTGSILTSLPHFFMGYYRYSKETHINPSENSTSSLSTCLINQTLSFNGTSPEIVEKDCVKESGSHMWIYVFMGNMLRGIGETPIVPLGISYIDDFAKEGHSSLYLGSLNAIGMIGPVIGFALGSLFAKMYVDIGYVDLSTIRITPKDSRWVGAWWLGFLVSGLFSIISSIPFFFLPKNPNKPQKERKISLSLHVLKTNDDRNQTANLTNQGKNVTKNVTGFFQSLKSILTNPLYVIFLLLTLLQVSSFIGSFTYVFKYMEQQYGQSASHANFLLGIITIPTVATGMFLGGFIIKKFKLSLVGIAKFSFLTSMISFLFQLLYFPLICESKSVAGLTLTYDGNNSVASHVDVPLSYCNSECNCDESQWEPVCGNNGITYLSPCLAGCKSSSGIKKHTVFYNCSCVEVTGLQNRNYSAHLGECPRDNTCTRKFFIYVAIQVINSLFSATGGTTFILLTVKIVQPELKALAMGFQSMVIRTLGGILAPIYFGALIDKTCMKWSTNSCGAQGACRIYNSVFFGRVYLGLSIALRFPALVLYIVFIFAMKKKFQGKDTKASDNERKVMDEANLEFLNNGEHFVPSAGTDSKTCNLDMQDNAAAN

Cytochrome P450 2C19 = Cytochrome P450 2C19 (Homo sapiens, UniProt P33261); assay: Inhibition of CYP2C19 in human liver microsomes using mephenytoin as substrate preincubated for 5 mins followed by NADPH addition by LC-MS/MS analysis; type: ADME
Chain of Cytochrome P450 2C19 (P33261 whole entry): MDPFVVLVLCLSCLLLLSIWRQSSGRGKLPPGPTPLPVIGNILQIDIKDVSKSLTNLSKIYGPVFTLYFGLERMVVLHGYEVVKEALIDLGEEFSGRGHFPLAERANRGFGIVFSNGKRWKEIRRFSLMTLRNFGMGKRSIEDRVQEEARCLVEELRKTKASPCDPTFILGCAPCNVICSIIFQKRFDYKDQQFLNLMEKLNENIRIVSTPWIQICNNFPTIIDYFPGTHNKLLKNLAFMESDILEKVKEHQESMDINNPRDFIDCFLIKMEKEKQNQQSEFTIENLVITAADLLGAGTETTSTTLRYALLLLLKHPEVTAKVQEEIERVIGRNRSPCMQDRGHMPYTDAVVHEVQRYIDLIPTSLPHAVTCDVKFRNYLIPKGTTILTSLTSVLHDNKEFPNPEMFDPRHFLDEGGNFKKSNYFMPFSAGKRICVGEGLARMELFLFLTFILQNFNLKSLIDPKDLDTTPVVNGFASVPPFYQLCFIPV

Chain of Terminal nucleotidyltransferase 4A (Homo sapiens) (Q5XG87 whole entry): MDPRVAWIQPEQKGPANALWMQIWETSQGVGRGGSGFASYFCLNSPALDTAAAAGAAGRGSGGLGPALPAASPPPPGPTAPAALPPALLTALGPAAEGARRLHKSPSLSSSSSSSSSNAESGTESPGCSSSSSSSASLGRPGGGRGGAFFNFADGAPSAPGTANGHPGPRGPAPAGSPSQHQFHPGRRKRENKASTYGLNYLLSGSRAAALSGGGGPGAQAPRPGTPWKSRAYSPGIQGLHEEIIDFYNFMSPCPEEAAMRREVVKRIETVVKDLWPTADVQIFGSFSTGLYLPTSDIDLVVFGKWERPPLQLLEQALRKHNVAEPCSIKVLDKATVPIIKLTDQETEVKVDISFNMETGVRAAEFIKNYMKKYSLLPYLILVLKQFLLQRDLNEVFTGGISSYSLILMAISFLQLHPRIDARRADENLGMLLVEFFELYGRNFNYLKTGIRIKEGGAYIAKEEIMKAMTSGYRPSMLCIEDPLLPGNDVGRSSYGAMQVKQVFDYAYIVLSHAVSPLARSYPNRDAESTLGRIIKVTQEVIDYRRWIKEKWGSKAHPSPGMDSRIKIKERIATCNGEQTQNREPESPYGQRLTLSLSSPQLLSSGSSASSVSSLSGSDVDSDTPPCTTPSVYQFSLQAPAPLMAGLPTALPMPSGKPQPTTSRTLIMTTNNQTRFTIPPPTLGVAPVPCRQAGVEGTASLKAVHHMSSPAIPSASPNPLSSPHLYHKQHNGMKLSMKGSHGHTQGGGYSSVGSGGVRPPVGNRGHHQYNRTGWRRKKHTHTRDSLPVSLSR

SMILES: COc1cc2c(cc1OCCCCCCC(=O)O)C[C@@H](C(C)C)n1cc(C(=O)O)c(=O)cc1-2
- pIC50 (Cytochrome P450 2C8): < 5.00
- efflux ratio at 1 h, 10 µM [1]: 5.3
- half-life [2]: 1740 min
- inhibition [3]: Dose-Dependent Effect
- pIC50 (Cytochrome P450 2A6): < 5.00
- pIC50 (Cytochrome P450 1A2): < 5.00
- Papp B→A at 2 h, 1 µM [4]: 0.55 ×10⁻⁶ cm/s
- half-life [5]: 212 min
- Cmax [6]: 16.1 ng/mL
- Ratio [7]: 11.57
- pIC50 (Cytochrome P450 2C19): < 5.00
